Values after ≈ are worked out from the molar mass of the structure shown.
Legend:
Escherichia coli 8739 [1] = experiment: MIC determination by dilution procedure; format: cell-based; conditions: E. coli 8739, dilutions 125-1.95 μg/mL, read-out: minimum inhibitory concentration (MIC)
Bacillus cereus 33018 [2] = experiment: MIC determination by dilution procedure; format: cell-based; conditions: B. cereus 33018, dilutions 125-1.95 μg/mL, read-out: minimum inhibitory concentration (MIC)
Description: (§1) A 100 μL measure of NB containing each test microorganism was added to the sterile Petri dishes. Antibacterial testing was carried out on all compounds (3a,b–14) using the agar disc-diffusion method [40]. Sterile nutrients were inoculated with 100 μL cell suspension of the chosen test microorganism and poured into Petri dishes (20 cm diameter). Filter paper discs (Whatman, No.3, diameter 5 mm) were loaded with 10 μL containing 100 μg of the tested compounds, as well as the standard drug. Composite compound disks were placed on the surface of inoculated agar plates and kept at low temperatures before incubation in order to support the swelling and diffusion of the microbial growth. The plates were incubated at 37 °C in the incubator. Experiments were performed in duplicate and the diameters of inhibition zones were measured after 24 h. A diameter of inhibition zone (DIZ) assay was performed to evaluate the antimicrobial potential of the compounds against the tested organisms compared with reference antibiotics.

[3] = tested on: Salmonella typhimurium 14028; experiment: agar disc-diffusion antibacterial assay; format: cell-based; conditions: Salmonella enterica; S. typhimurium 14028; disc loaded with 100 μg; 37 °C, 24 h; read-out: diameter of inhibition zone
Description: (§2) The clinical control strains of Gram-negative bacteria (Escherichia coli 8739, Salmonella typhimurium 14028, Pseudomonas aeruginosa 27853) and Gram-positive bacteria (Bacillus subtilis 6633, Bacillus cereus 33018, Staphylococcus aureus 25923), were obtained from microbial inoculums by subculturing microorganisms into nutrient broth (NB) at 37 °C for 18 h, and were adjusted to 0.125 A° at 625 nm (equivalent to a McFarland 0.5) in 2-fold NB. A 100 μL measure of NB containing each test microorganism was added to the sterile Petri dishes. Antibacterial testing was carried out on all compounds (3a,b–14) using the agar disc-diffusion method [40]. Sterile nutrients were inoculated with 100 μL cell suspension of the chosen test microorganism and poured into Petri dishes (20 cm diameter). Filter paper discs (Whatman, No.3, diameter 5 mm) were loaded with 10 μL containing 100 μg of the tested compounds, as well as the standard drug. Composite compound disks were placed on the surface of inoculated agar plates and kept at low temperatures before incubation in order to support the swelling and diffusion of the microbial growth. The plates were incubated at 37 °C in the incubator. Experiments were performed in duplicate and the diameters of inhibition zones were measured after 24 h.

[4] = tested on: Staphylococcus aureus 25923; experiment: MIC determination by dilution procedure; format: cell-based; conditions: dilutions 125-1.95 μg/mL; for MIC: Staphylococcus aureus, 25923, S. aureus 25923, read-out: minimum inhibitory concentration (MIC)
Description: as §1

Bacillus subtilis 6633 [5] = experiment: agar disc-diffusion antibacterial assay; format: cell-based; conditions: B. subtilis 6633, disc loaded with 100 μg, 37 °C, 24 h, read-out: diameter of inhibition zone
Description: as §1

[6] = tested on: Staphylococcus aureus 25923; experiment: agar disc-diffusion antibacterial assay; format: cell-based; conditions: S. aureus 25923, disc loaded with 100 μg, 37 °C, 24 h, read-out: diameter of inhibition zone
Description: (§3) The clinical control strains of Gram-negative bacteria (Escherichia coli 8739, Salmonella typhimurium 14028, Pseudomonas aeruginosa 27853) and Gram-positive bacteria (Bacillus subtilis 6633, Bacillus cereus 33018, Staphylococcus aureus 25923), were obtained from microbial inoculums by subculturing microorganisms into nutrient broth (NB) at 37 °C for 18 h, and were adjusted to 0.125 A° at 625 nm (equivalent to a McFarland 0.5) in 2-fold NB. A 100 μL measure of NB containing each test microorganism was added to the sterile Petri dishes. Antibacterial testing was carried out on all compounds (3a,b–14) using the agar disc-diffusion method [40]. Sterile nutrients were inoculated with 100 μL cell suspension of the chosen test microorganism and poured into Petri dishes (20 cm diameter). Filter paper discs (Whatman, No.3, diameter 5 mm) were loaded with 10 μL containing 100 μg of the tested compounds, as well as the standard drug. Composite compound disks were placed on the surface of inoculated agar plates and kept at low temperatures before incubation in order to support the swelling and diffusion of the microbial growth. The plates were incubated at 37 °C in the incubator. Experiments were performed in duplicate and the diameters of inhibition zones were measured after 24 h. A diameter of inhibition zone (DIZ) assay was performed to evaluate the antimicrobial potential of the compounds against the tested organisms compared with reference antibiotics.

Bacillus subtilis 6633 [7] = experiment: MIC determination by dilution procedure; format: cell-based; conditions: B. subtilis 6633, dilutions 125-1.95 μg/mL, read-out: minimum inhibitory concentration (MIC)
Description: as §1

Escherichia coli 8739 [8] = experiment: agar disc-diffusion antibacterial assay; format: cell-based; conditions: E. coli 8739, disc loaded with 100 μg, 37 °C, 24 h, read-out: diameter of inhibition zone
Description: as §3

Bacillus cereus 33018 [9] = experiment: agar disc-diffusion antibacterial assay; format: cell-based; conditions: B. cereus 33018, disc loaded with 100 μg, 37 °C, 24 h, read-out: diameter of inhibition zone
Description: as §1

[10] = tested on: Pseudomonas aeruginosa 27853; experiment: MIC determination by dilution procedure; format: cell-based; conditions: dilutions 125-1.95 μg/mL; for MIC: Pseudomonas aeruginosa, 27853, P. aeruginosa 27853, read-out: minimum inhibitory concentration (MIC)
[11] = tested on: Salmonella typhimurium 14028; experiment: MIC determination by dilution procedure; format: cell-based; conditions: Salmonella enterica; S. typhimurium 14028; dilutions 125-1.95 μg/mL; read-out: minimum inhibitory concentration (MIC)
Description: as §2

[12] = tested on: Pseudomonas aeruginosa 27853; experiment: agar disc-diffusion antibacterial assay; format: cell-based; conditions: P. aeruginosa 27853, disc loaded with 100 μg, 37 °C, 24 h, read-out: diameter of inhibition zone
Description: as §3

DNA gyrase from E. coli = biological target: T1, DNA gyrase from E. coli (Escherichia coli, UniProt P0AES6); experiment: Escherichia coli DNA gyrase supercoiling inhibition assay; format: biochemical
T1 construct: purchased TopoGEN

Compound	MIC (Escherichia coli 8739 [1]) [µg/mL]	MIC (Bacillus cereus 33018 [2]) [µg/mL]	MIC [4] [µg/mL]	MIC (Bacillus subtilis 6633 [7]) [µg/mL]	MIC [10] [µg/mL]	MIC [11] [µg/mL]	melting point [°C]	minimum inhibitory concentration (MIC) ([4]; S. aureus 25923) [µg/mL]	minimum inhibitory concentration (MIC) ([10]; P. aeruginosa 27853) [µg/mL]	zone of inhibition at 100 µg/disc [3] [mm]	zone of inhibition at 100 µg/disc (Bacillus subtilis 6633 [5]) [mm]	zone of inhibition at 100 µg/disc [6] [mm]	zone of inhibition at 100 µg/disc (Escherichia coli 8739 [8]) [mm]	zone of inhibition at 100 µg/disc (Bacillus cereus 33018 [9]) [mm]	zone of inhibition at 100 µg/disc [12] [mm]	IC50 (DNA gyrase from E. coli) [µM]
CC1(C)S[C@@H]2[C@H](NC(=O)[C@H](N)c3ccc(O)cc3)C(=O)N2[C@H]1C(=O)O [Amoxicillin, amoxicillin trihydrate, reference compound]	15.6	15.6	15.6	15.6	15.6	15.6				21	17	19	20	19	18	
COc1ccc(-c2cc(-c3ccco3)nc(SCC(N)=O)c2C#N)cc1 [Compound 2a, 2-((3-Cyano-6-(furan-2-yl)-4-(4-methoxyphenyl)pyridin-2-yl)thio)acetamide]							246									
N#Cc1c(-c2cccs2)cc(-c2ccco2)nc1SCC(N)=O [Compound 2b, 2-((3-Cyano-6-(furan-2-yl)-4-(thiophen-2-yl)pyridin-2-yl)thio)acetamide]							242									
NC(=O)c1sc2nc(-c3ccco3)cc(-c3cccs3)c2c1N=C1CCCCC1 [Compound 4b, 3-(Cyclohexylideneamino)-6-(furan-2-yl)-4-(thiophen-2-yl)thieno[2,3-b]pyridine-2-carboxamide]	31.2 (≈ 74.1 µM)		31.2 (≈ 74.1 µM)	31.2 (≈ 74.1 µM)		15.6 (≈ 37.1 µM)	320 to 322			15	10	12	12			
COc1ccc(-c2cc(-c3ccco3)nc3sc4c(NC(=O)CCl)c5c(nc4c23)CCCC5)cc1 [Compound 6a, 2-Chloro-N-(2-(furan-2-yl)-4-(4-methoxyphenyl)-6,7,8,9-tetrahydropyrido[3′,2′:4,5]thieno[3,2-b]quinolin-10-yl)acetamide]	31.2 (≈ 62 µM)	31.2 (≈ 62 µM)	31.2 (≈ 62 µM)	31.2 (≈ 62 µM)	31.2 (≈ 62 µM)		342 to 343				10	12	13	13	13	13.7 ± 0.65
O=C(CCl)Nc1c2c(nc3c1sc1nc(-c4ccco4)cc(-c4cccs4)c13)CCCC2 [Compound 6b, 2-Chloro-N-(2-(furan-2-yl)-4-(thiophen-2-yl)-6,7,8,9-tetrahydropyrido[3′,2′:4,5]thieno[3,2-b]quinolin-10-yl)acetamide]	15.6 (≈ 32.6 µM)	15.6 (≈ 32.6 µM)		15.6 (≈ 32.6 µM)	31.2 (≈ 65.1 µM)	31.2 (≈ 65.1 µM)	338			12	15		16	15	12	5.95 ± 0.34
NNCC(=O)Nc1c2c(nc3c1sc1nc(-c4ccco4)cc(-c4cccs4)c13)CCCC2 [Compound 7b, N-(2-(furan-2-yl)-4-(thiophen-2-yl)-6,7,8,9-tetrahydropyrido[3′,2′:4,5]thieno[3,2-b]quinolin-10-yl)-2-hydrazinylacetamide]		31.2 (≈ 65.7 µM)	31.2 (≈ 65.7 µM)	62.5 (≈ 131 µM)	31.2 (≈ 65.7 µM)	31.2 (≈ 65.7 µM)	306			10	8	10		11	12	
CC(=O)CC(=O)Nc1c2c(nc3c1sc1nc(-c4ccco4)cc(-c4cccs4)c13)CCCC2 [Compound 13, N-(2-(furan-2-yl)-4-(thiophen-2-yl)-6,7,8,9-tetrahydropyrido[3′,2′:4,5]thieno[3,2-b]quinolin-10-yl)-3-oxobutanamide]	62.5 (≈ 128 µM)	15.6 (≈ 32.1 µM)	31.2 (≈ 64.1 µM)	15.6 (≈ 32.1 µM)	31.2 (≈ 64.1 µM)	62.5 (≈ 128 µM)	217 to 218			7	15	12	8	16	11	

Now from value to compound, other results behind:

MIC (Escherichia coli 8739 [1]) [µg/mL]	MIC (Bacillus cereus 33018 [2]) [µg/mL]	MIC [4] [µg/mL]	MIC (Bacillus subtilis 6633 [7]) [µg/mL]	MIC [10] [µg/mL]	MIC [11] [µg/mL]	melting point [°C]	minimum inhibitory concentration (MIC) ([4]; S. aureus 25923) [µg/mL]	minimum inhibitory concentration (MIC) ([10]; P. aeruginosa 27853) [µg/mL]	Compound	zone of inhibition at 100 µg/disc [3] [mm]	zone of inhibition at 100 µg/disc (Bacillus subtilis 6633 [5]) [mm]	zone of inhibition at 100 µg/disc [6] [mm]	zone of inhibition at 100 µg/disc (Escherichia coli 8739 [8]) [mm]	zone of inhibition at 100 µg/disc (Bacillus cereus 33018 [9]) [mm]	zone of inhibition at 100 µg/disc [12] [mm]	IC50 (DNA gyrase from E. coli) [µM]
31.2 (≈ 73.1 µM)	31.2 (≈ 73.1 µM)		31.2 (≈ 73.1 µM)	31.2 (≈ 73.1 µM)		231			COc1ccc(-c2cc(-c3ccco3)nc3sc4c(N)c5c(nc4c23)CCCC5)cc1 [Compound 5a, 2-(Furan-2-yl)-4-(4-methoxyphenyl)-6,7,8,9-tetrahydropyrido[3′,2′:4,5]thieno[3,2-b]quinolin-10-amine]		10		12	13	12	
	31.2 (≈ 48.2 µM)	31.2 (≈ 48.2 µM)	31.2 (≈ 48.2 µM)			187			COc1ccc(-c2cc(-c3ccco3)nc3sc4c(NC(=O)CNN=Cc5ccc(OC)c(OC)c5)c5c(nc4c23)CCCC5)cc1 [Compound 8a, 2-(2-(3,4-Dimethoxybenzylidene)hydrazinyl)-N-(2-(furan-2-yl)-4-(4-methoxyphenyl)-6,7,8,9-tetrahydropyrido[3′,2′:4,5]thieno[3,2-b]quinolin-10-yl)acetamide]		11	11		9		
	62.5 (≈ 104 µM)	62.5 (≈ 104 µM)	31.2 (≈ 51.9 µM)			122			COc1ccc(-c2cc(-c3ccco3)nc3sc4c(NC(=O)CNN=Cc5ccc(C)cc5)c5c(nc4c23)CCCC5)cc1 [Compound 8b, N-(2-(furan-2-yl)-4-(4-methoxyphenyl)-6,7,8,9-tetrahydropyrido[3′,2′:4,5]thieno[3,2-b]quinolin-10-yl)-2-(2-(4-methylbenzylidene)hydrazinyl)acetamide]		9	8		9		
15.6 (≈ 28.2 µM)	15.6 (≈ 28.2 µM)	15.6 (≈ 28.2 µM)	15.6 (≈ 28.2 µM)	15.6 (≈ 28.2 µM)	15.6 (≈ 28.2 µM)	143	31.25 (≈ 56.3 µM)	31.25 (≈ 56.3 µM)	COc1ccc(-c2cc(-c3ccco3)nc3sc4c(NC(=O)CN5CCOCC5)c5c(nc4c23)CCCC5)cc1 [Compound 9a, N-(2-(furan-2-yl)-4-(4-methoxyphenyl)-6,7,8,9-tetrahydropyrido[3′,2′:4,5]thieno[3,2-b]quinolin-10-yl)-2-morpholinoacetamide]		14	12		16	11	
	62.5 (≈ 110 µM)	31.2 (≈ 55 µM)	62.5 (≈ 110 µM)			303 to 304			COc1ccc(-c2cc(-c3ccco3)nc3sc4c(NS(=O)(=O)c5ccccc5)c5c(nc4c23)CCCC5)cc1 [Compound 10, N-(2-(Furan-2-yl)-4-(4-methoxyphenyl)-6,7,8,9-tetrahydropyrido[3′,2′:4,5]thieno [3,2-b]quinolin-10-yl)benzenesulfonamide]		8	9		9		
	62.5 (≈ 114 µM)	62.5 (≈ 114 µM)	31.2 (≈ 57.2 µM)			118 to 120			COc1ccc(-c2cc(-c3ccco3)nc3sc4c(NC(=O)Nc5ccccc5)c5c(nc4c23)CCCC5)cc1 [Compound 11, 1-(2-(Furan-2-yl)-4-(4-methoxyphenyl)-6,7,8,9-tetrahydropyrido[3′,2′:4,5]thieno [3,2-b]quinolin-10-yl)-3-phenylurea]		9	8		8		
31.2 (≈ 55.9 µM)	31.2 (≈ 55.9 µM)	31.2 (≈ 55.9 µM)	31.2 (≈ 55.9 µM)	62.5 (≈ 112 µM)	62.5 (≈ 112 µM)	149			COc1ccc(-c2cc(-c3ccco3)nc3sc4c(N=Cc5ccc(N(C)C)cc5)c5c(nc4c23)CCCC5)cc1 [Compound 12a, 4-(((2-(furan-2-yl)-4-(4-methoxyphenyl)-6,7,8,9-tetrahydropyrido[3′,2′:4,5]thieno[3,2-b]quinolin-10-yl)imino)methyl)-N,N-dimethylaniline]	8	13	10	11	11	9	

From paper PMC6832920, “Synthesis, Docking Studies, and In Vitro Evaluation of Some Novel Thienopyridines and Fused Thienopyridine–Quinolines as Antibacterial Agents and DNA Gyrase Inhibitors” (Molecules, 2019)
